A value given as a limit tells only on which side of the number the result lay.

The IC50 is the concentration needed to halve the response being measured.

The test can be described thus: Inhibition of LFA1:CD11a/CD18/ICAM1-mediated human HL60 cell adhesion to human HeLa cells expressing ICAM1 by fluorescence analysis.
Molecule `CC[C@H]1CN2CCc3cc(OC)c(OC)cc3[C@@H]2C[C@@H]1C[C@H]1NCCc2cc(OC)c(OC)cc21` [6',7',10,11-tetramethoxyemetan] came in with a concentration for half-maximal inhibition (IC50) above 104 µM.

`CC[C@H]1CN2CCc3cc(OC)c(OC)cc3[C@@H]2C[C@@H]1C[C@H]1NCCc2cc(O)c(OC)cc21` [CHEBI:3533] displayed an IC50 above 21.4 µM.

`C=C1[C@@H](C)[C@H]2[C@H](Cc3ccccc3)NC(=O)[C@]23OC(=O)/C=C/[C@H](O)CCC[C@@H](C)C/C=C/[C@H]3[C@@H]1O` [CHEBI:23527] returned a 50% inhibitory concentration (IC50) of 11.4 µM.

The values above are taken from BindingDB's records for doi:10.1021/np030086k (University of Mississippi, 2003).
